Data as given in PubChem BioAssay AID256 (DTP/NCI, 2004).
“And” between values parts separate entries of the source, which are not always exact repeats. Identical values can stand only once. Toxic doses and inconclusive results are not listed. Rule for the calls: active = survival T/C of 150% or more; inactive = T/C below 125% in these data.

Test system: CD2F1 mice, L1210 leukemia ip, survival T/C
Assay: NCI In Vivo Anticancer Drug Screen. Data for tumor model L1210 Leukemia (intraperitoneal) in CD2F1 (CDF1) mice
Settings: endpoint: mean survival time, higher = longer survival
Method in brief: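 Activity against a transplanted murine tumor was judged by comparing the compound group with a vehicle group. The outcome in the treated animals was divided by that in the controls.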

[1] = dose: 100.0 mg/kg/injection, schedule: Q04DX003 (ip), vehicle: saline with Tween-80
[2] = dose: 200.0 mg/kg/injection, schedule: Q04DX003 (ip), vehicle: saline with Tween-80
[3] = dose: 400.0 mg/kg/injection, schedule: Q04DX003 (ip), vehicle: saline with Tween-80
[4] = dose: 50.0 mg/kg/injection, schedule: Q04DX002 (ip), vehicle: saline with Tween-80
[5] = dose: 100.0 mg/kg/injection, schedule: Q04DX002 (ip), vehicle: saline with Tween-80
[6] = dose: 200.0 mg/kg/injection, schedule: Q04DX002 (ip), vehicle: saline with Tween-80
[7] = dose: 400.0 mg/kg/injection, schedule: Q04DX002 (ip), vehicle: saline with Tween-80
[8] = dose: 25.0 mg/kg/injection, schedule: Q01DX009 (ip), vehicle: saline with Tween-80
[9] = dose: 50.0 mg/kg/injection, schedule: Q01DX009 (ip), vehicle: saline with Tween-80
[10] = dose: 100.0 mg/kg/injection, schedule: Q01DX009 (ip), vehicle: saline
[11] = dose: 100.0 mg/kg/injection, schedule: Q01DX009 (ip), vehicle: saline with Tween-80
[12] = dose: 200.0 mg/kg/injection, schedule: Q01DX009 (ip), vehicle: saline with Tween-80
[13] = dose: 75.0 mg/kg/injection, schedule: Q01DX001 (ip), vehicle: other
[14] = dose: 150.0 mg/kg/injection, schedule: Q01DX001 (ip), vehicle: other

Measured: T/C

CC(=O)OC1(C)C=C/C(=N\S(=O)(=O)c2ccc(C)cc2)c2ccccc21 (configuration not stated)
inactive: [1] 95 % of control | [2] 97 % of control | [3] 95 % of control

CCC1(C)CCC2C(=CCC3C(C)(C(=O)O)CCCC23C)C1 (configuration not stated)
inactive: [1] 103 % of control | [2] 88 % of control | [3] 89 % of control

CC(=O)NCCSSCCNC(C)=O
inactive: [4] 91 % of control | [5] 95 % of control | [6] 88 % of control | [7] 109 % of control

COc1c2c(c(OC)c3c1C(=O)c1ccccc1C3=O)CC=CC2
inactive: dose: 12.5 mg/kg/injection, schedule: Q01DX009 (ip), vehicle: other 105 % of control | dose: 25.0 mg/kg/injection, schedule: Q01DX009 (ip), vehicle: other 100 % of control | dose: 44.0 mg/kg/injection, schedule: Q01DX009 (ip), vehicle: other 92 % of control | dose: 50.0 mg/kg/injection, schedule: Q01DX009 (ip), vehicle: other 96 % of control | dose: 66.0 mg/kg/injection, schedule: Q01DX009 (ip), vehicle: other 90 % of control | dose: 100.0 mg/kg/injection, schedule: Q01DX009 (ip), vehicle: other 121 % of control and 90 % of control | dose: 200.0 mg/kg/injection, schedule: Q01DX009 (ip), vehicle: other 105 % of control

NC(=O)c1ccccc1CO
inactive: [5] 102 % of control | [6] 98 % of control | [7] 98 % of control

C=C1C(=C)C2C=CC1C1C3C(c4ccccn4)=NN=C(c4ccccn4)C3C21 (configuration not stated)
inactive: dose: 25.0 mg/kg/injection, schedule: Q04DX002 (ip), vehicle: saline with Tween-80 95 % of control | [4] 98 % of control | [5] 98 % of control | [6] 88 % of control | [7] 103 % of control

CC(C)=CCC/C(C)=C/COc1ccc(/C=C2/C(=O)N(O)[C@@H](C)C(=O)N2O)cc1
inactive: dose: 1.56 mg/kg/injection, schedule: Q01DX009 (ip), vehicle: saline with Tween-80 101 % of control | dose: 3.12 mg/kg/injection, schedule: Q01DX009 (ip), vehicle: saline with Tween-80 96 % of control | dose: 3.12 mg/kg/injection, schedule: Q01DX009 (ip), vehicle: saline 94 % of control | dose: 6.25 mg/kg/injection, schedule: Q01DX009 (ip), vehicle: saline with Tween-80 101 % of control | dose: 6.25 mg/kg/injection, schedule: Q01DX009 (ip), vehicle: saline 96 % of control | dose: 12.5 mg/kg/injection, schedule: Q01DX009 (ip), vehicle: saline with Tween-80 101 % of control | dose: 12.5 mg/kg/injection, schedule: Q01DX009 (ip), vehicle: saline 100 % of control | [8] 106 % of control | dose: 25.0 mg/kg/injection, schedule: Q01DX009 (ip), vehicle: saline 108 % of control | [9] 112 % of control | dose: 50.0 mg/kg/injection, schedule: Q01DX009 (ip), vehicle: saline 100 % of control | [10] 100 % of control

COC(=O)N1CC=CCN1C(=O)OC
inactive: [10] 105 % of control | dose: 200.0 mg/kg/injection, schedule: Q01DX009 (ip), vehicle: saline 108 % of control | dose: 400.0 mg/kg/injection, schedule: Q01DX009 (ip), vehicle: saline 102 % of control

CC12CC1(C)C(=O)OC2=O (configuration not stated)
inactive: [9] 96 % of control | [11] 95 % of control | [12] 96 % of control

O=C(NCCF)NC1CCSc2ccccc21 (configuration not stated)
inactive: [13] 101 % of control | [14] 103 % of control

CC(=O)OC1COC(n2c(O)c(N=NC(N)=S)c3cc([N+](=O)[O-])ccc32)C(OC(C)=O)C1OC(C)=O (configuration not stated)
inactive: dose: 12.5 mg/kg/injection, schedule: Q01DX005 (ip), vehicle: other 96 % of control | dose: 25.0 mg/kg/injection, schedule: Q01DX005 (ip), vehicle: other 96 % of control | dose: 50.0 mg/kg/injection, schedule: Q01DX005 (ip), vehicle: other 92 % of control | dose: 100.0 mg/kg/injection, schedule: Q01DX005 (ip), vehicle: other 88 % of control

CC1COCC(C)N1 (configuration not stated)
inactive: dose: 100.0 mg/kg/injection, schedule: Q04DX003 (ip), vehicle: saline 96 % of control | dose: 200.0 mg/kg/injection, schedule: Q04DX003 (ip), vehicle: saline 98 % of control | dose: 400.0 mg/kg/injection, schedule: Q04DX003 (ip), vehicle: saline 96 % of control

CC(=O)Nc1ccc(C(C)=O)cc1
inactive: [1] 108 % of control | [2] 106 % of control | [3] 93 % of control

CCOC(=O)c1ccc(NC(=O)Oc2ccc(NC(C)=O)cc2)cc1
inactive: [11] 95 % of control and 102 % of control | [5] 91 % of control and 94 % of control | [1] 89 % of control | [12] 96 % of control and 100 % of control | [6] 94 % of control and 105 % of control | [2] 86 % of control | dose: 400.0 mg/kg/injection, schedule: Q01DX009 (ip), vehicle: saline with Tween-80 92 % of control and 96 % of control | [7] 92 % of control | [3] 86 % of control

CCN1CCN(CC)C1c1ccccc1
inactive: [11] 103 % of control | [12] 98 % of control

CCCCOC(=O)c1ccccn1
inactive: [9] 101 % of control | [11] 95 % of control | [12] 98 % of control

CC1=C(N2CC2C)C(=O)c2c(COC(N)=O)c3n(c2C1=O)CC1NC31 (configuration not stated)
inactive: dose: 2.5 mg/kg/injection, schedule: Q01DX001 (ip), vehicle: distilled water + Tween-80 111 % of control | dose: 5.0 mg/kg/injection, schedule: Q01DX001 (ip), vehicle: distilled water + Tween-80 101 % of control | dose: 10.0 mg/kg/injection, schedule: Q01DX001 (ip), vehicle: distilled water + Tween-80 111 % of control | dose: 20.0 mg/kg/injection, schedule: Q01DX001 (ip), vehicle: distilled water + Tween-80 122 % of control

N#CC(Cl)(C#N)c1ccc(C(Cl)(C#N)C#N)cc1
inactive: [8] 101 % of control | [9] 104 % of control | [11] 98 % of control and 101 % of control

COc1ccc(Cc2cncc3cc(OC)c(OC)cc23)cc1OC
inactive: dose: 100.0 mg/kg/injection, schedule: Q01DX001 (ip), vehicle: saline 101 % of control | dose: 200.0 mg/kg/injection, schedule: Q01DX001 (ip), vehicle: saline 96 % of control

O/N=C/c1cccc[n+]1Cc1ccccc1
inactive: dose: 1.56 mg/kg/injection, schedule: Q01DX009 (ip), vehicle: Klucel (hydroxypropylcellulose) (HPC) 107 % of control | dose: 3.13 mg/kg/injection, schedule: Q01DX009 (ip), vehicle: Klucel (hydroxypropylcellulose) (HPC) 106 % of control | dose: 6.25 mg/kg/injection, schedule: Q01DX009 (ip), vehicle: Klucel (hydroxypropylcellulose) (HPC) 102 % of control | dose: 12.5 mg/kg/injection, schedule: Q01DX009 (ip), vehicle: Klucel (hydroxypropylcellulose) (HPC) 106 % of control | dose: 25.0 mg/kg/injection, schedule: Q01DX009 (ip), vehicle: Klucel (hydroxypropylcellulose) (HPC) 95 % of control | dose: 25.0 mg/kg/injection, schedule: Q01DX009 (ip), vehicle: water 100 % of control

CN(C)S(=O)(=O)Oc1cccc(N)c1
inactive: [1] 92 % of control | [2] 87 % of control

O=[N+]([O-])c1ccc2nocc2c1
inactive: dose: 25.0 mg/kg/injection, schedule: Q04DX003 (ip), vehicle: Klucel (hydroxypropylcellulose) (HPC) 105 % of control | dose: 50.0 mg/kg/injection, schedule: Q04DX003 (ip), vehicle: Klucel (hydroxypropylcellulose) (HPC) 97 % of control | dose: 100.0 mg/kg/injection, schedule: Q04DX003 (ip), vehicle: Klucel (hydroxypropylcellulose) (HPC) 101 % of control

Nc1ccc(OCC(O)CN2CCN(c3ccccc3)CC2)cc1 (configuration not stated)
inactive: [5] 94 % of control | [6] 107 % of control

COc1ccccc1C=NC(C)(C)CO
inactive: [13] 102 % of control | [14] 97 % of control | dose: 300.0 mg/kg/injection, schedule: Q01DX001 (ip), vehicle: other 97 % of control

c1ccc2c(CC3=NCCN3)cccc2c1
inactive: dose: 12.5 mg/kg/injection, schedule: Q04DX003 (ip), vehicle: saline with Tween-80 98 % of control | dose: 50.0 mg/kg/injection, schedule: Q04DX003 (ip), vehicle: saline with Tween-80 88 % of control | dose: 50.0 mg/kg/injection, schedule: Q04DX003 (ip), vehicle: saline 102 % of control

CCCCCC(CN(C)C)C(/C=C/c1ccccc1)OC(=O)c1ccc([N+](=O)[O-])cc1 (configuration not stated)
inactive: [11] 97 % of control | [1] 90 % of control | [12] 100 % of control | [2] 105 % of control | [3] 106 % of control
